These results are taken from ChEMBL document CHEMBL5223082, “Alkyl-Aryl-Vancomycins: Multimodal Glycopeptides with Weak Dependence on the Bacterial Metabolic State” (J Med Chem, 2021).

Values after ≈ are worked out from the molar mass of the structure shown.

Series [1] deals with Enterococcus. As to the kind of experiment: Antibacterial activity against Vancomycin-resistant Enterococci ATCC 51559 assessed as inhibition of bacterial growth incubated for 18 to 24 hrs by CLSI microbroth dilution method. Type of series: functional. Conditions: time 18-24 hrs. On the technique in general: Dilution methods test growth across graded concentrations, often in twofold steps.

Series [2] relates to Staphylococcus aureus. As to the kind of experiment: Antibacterial activity against Vancomycin-resistant Staphylococcus aureus 12 assessed as inhibition of bacterial growth incubated for 18 to 24 hrs by CLSI microbroth dilution method. Type of series: functional. Conditions: time 18-24 hrs.
Series [3] deals with Staphylococcus aureus. As to the kind of experiment: Antibacterial activity against Methicillin-resistant Staphylococcus aureus ATCC 33591 assessed as inhibition of bacterial growth incubated for 18 to 24 hrs by CLSI microbroth dilution method. Type of series: functional. Particulars: time 18-24 hrs.
Series [4] has as its system Enterococcus. As to the kind of experiment: Antibacterial activity against Vancomycin-resistant Enterococci ATCC 51575 assessed as inhibition of bacterial growth incubated for 18 to 24 hrs by CLSI microbroth dilution method. Particulars: time 18-24 hrs. Type of series: functional.
The subject of series [5] is Staphylococcus aureus. As to the kind of experiment: Antibacterial activity against Vancomycin-resistant Staphylococcus aureus 1 assessed as inhibition of bacterial growth incubated for 18 to 24 hrs by CLSI microbroth dilution method. Conditions: time 18-24 hrs. Type of series: functional.
Series [6] has as its system Enterococcus. As to the kind of experiment: Antibacterial activity against Vancomycin-resistant Enterococci NR30903 assessed as inhibition of bacterial growth incubated for 18 to 24 hrs by CLSI microbroth dilution method. Type of series: functional. Conditions: time 18-24 hrs.
In series [7] the test system is Enterococcus. As to the kind of experiment: Antibacterial activity against Vancomycin-resistant Enterococci NR30909 assessed as inhibition of bacterial growth incubated for 18 to 24 hrs by CLSI microbroth dilution method. Type of series: functional. Conditions: time 18-24 hrs.
Series [8] relates to Staphylococcus aureus. As to the kind of experiment: Antibacterial activity against Vancomycin-resistant Staphylococcus aureus 4 assessed as inhibition of bacterial growth incubated for 18 to 24 hrs by CLSI microbroth dilution method. Type of series: functional. Conditions: time 18-24 hrs.
The nature of series [9]: Induction of hemolysis in human erythrocytes incubated for 1 hr by microtiter plater reader analysis. Type of series: toxicity, cell-based, Erythrocyte.
Series [10] can be described thus: Induction of hemolysis in human erythrocytes at 250 uM incubated for 1 hr by microtiter plater reader analysis. Type of series: toxicity, cell-based, Erythrocyte. Particulars: read-out: Activity.
Series [11] has as its system Enterococcus. As to the kind of experiment: Potency index, ratio of Vancomycin MIC to test compound MIC for antibacterial activity against Vancomycin-resistant Enterococci ATCC 51559. Type of series: functional.
In series [12] the test system is Staphylococcus aureus. As to the kind of experiment: Potency index, ratio of Vancomycin MIC to test compound MIC for antibacterial activity against Vancomycin-resistant Staphylococcus aureus 12. Type of series: functional.
The test system of series [13] is Staphylococcus aureus. As to the kind of experiment: Potency index, ratio of Vancomycin MIC to test compound MIC for antibacterial activity against Vancomycin-resistant Staphylococcus aureus 1. Type of series: functional.
In series [14] the test system is Staphylococcus aureus. As to the kind of experiment: Potency index, ratio of Vancomycin MIC to test compound MIC for antibacterial activity against Vancomycin-resistant Staphylococcus aureus 4. Type of series: functional.
In series [15] the test system is Enterococcus. As to the kind of experiment: Potency index, ratio of Vancomycin MIC to test compound MIC for antibacterial activity against Vancomycin-resistant Enterococci NR30909. Type of series: functional, NR 30909.
Series [16] relates to Enterococcus. As to the kind of experiment: Potency index, ratio of Vancomycin MIC to test compound MIC for antibacterial activity against Vancomycin-resistant Enterococci ATCC 51575. Type of series: functional.
The subject of series [17] is Enterococcus. As to the kind of experiment: Potency index, ratio of Vancomycin MIC to test compound MIC for antibacterial activity against Vancomycin-resistant Enterococci NR30903. Type of series: functional, NR 30903.

In general, MIC refers to the least concentration at which growth counts as inhibited. `CN[C@H](CC(C)C)C(=O)N[C@H]1C(=O)N[C@@H](CC(N)=O)C(=O)N[C@H]2C(=O)N[C@H]3C(=O)N[C@H](C(=O)N[C@H](C(=O)O)c4cc(O)cc(O)c4-c4cc3ccc4O)[C@H](O)c3ccc(c(Cl)c3)Oc3cc2cc(c3O[C@@H]2O[C@H](CO)[C@@H](O)[C@H](O)[C@H]2O[C@H]2C[C@](C)(NCc3ccc(-c4ccc(Cl)cc4)cc3)[C@H](O)[C@H](C)O2)Oc2ccc(cc2Cl)[C@H]1O`: the MIC in the series with Enterococcus [1] was 4.2 µM (≈ 6.93 µg/mL); in the series with Staphylococcus aureus [2], 4.2 µM (≈ 6.93 µg/mL); in the series on Staphylococcus aureus [3], 0.5 µM (≈ 0.825 µg/mL); in the series with Enterococcus [4], 2.1 µM (≈ 3.46 µg/mL); in the series with Staphylococcus aureus [5] it was 4.2 µM (≈ 6.93 µg/mL); in the series on Enterococcus [6] it was 4.2 µM (≈ 6.93 µg/mL). In addition, the MIC in the series on Enterococcus [7] was found to be 4.2 µM (≈ 6.93 µg/mL); in the series on Staphylococcus aureus [8] it was 2.1 µM (≈ 3.46 µg/mL).
The HC50 is the concentration that lyses half of the red blood cells. `CN[C@H](CC(C)C)C(=O)N[C@H]1C(=O)N[C@@H](CC(N)=O)C(=O)N[C@H]2C(=O)N[C@H]3C(=O)N[C@H](C(=O)N[C@H](C(=O)O)c4cc(O)cc(O)c4-c4cc3ccc4O)[C@H](O)c3ccc(c(Cl)c3)Oc3cc2cc(c3O[C@@H]2O[C@H](CO)[C@@H](O)[C@H](O)[C@H]2O[C@H]2C[C@](C)(NCc3ccc(C(=O)NCCC[N+](C)(C)Cc4cccc5ccccc45)cc3)[C@H](O)[C@H](C)O2)Oc2ccc(cc2Cl)[C@H]1O`: the minimum inhibitory concentration (MIC) in the series on Enterococcus [1] was above 30 µM; in the series on Staphylococcus aureus [2], 3.7 µM; with Staphylococcus aureus [3], 0.9 µM; in the series with Enterococcus [4], above 30 µM; in the series on Staphylococcus aureus [5] it was 29.8 µM; in the series with Enterococcus [6], 14.9 µM. The MIC with Enterococcus [7] was 7.4 µM; in the series on Staphylococcus aureus [8], 14.9 µM. For the same molecule, the HC50 at 1 h in series [9] is above 250 µM. Also, the hemolysis at 1 h, 250 µM in series [10] was found to be 0%.
In the case of `CCCCCCCCCCNC(=O)C[N+](C)(C)CCCNC(=O)c1ccc(C)cc1`, the MIC with Enterococcus [1], with Enterococcus [4], with Enterococcus [6] and with Enterococcus [7] was above 40 µM each time.
Take `CCCCCCCCCCCCCCNC(=O)c1ccc(CN[C@@]2(C)C[C@H](O[C@H]3[C@H](Oc4c5cc6cc4Oc4ccc(cc4Cl)[C@@H](O)[C@@H](NC(=O)[C@@H](CC(C)C)NC)C(=O)N[C@@H](CC(N)=O)C(=O)N[C@H]6C(=O)N[C@H]4C(=O)N[C@H](C(=O)N[C@H](C(=O)O)c6cc(O)cc(O)c6-c6cc4ccc6O)[C@H](O)c4ccc(c(Cl)c4)O5)O[C@H](CO)[C@@H](O)[C@@H]3O)O[C@@H](C)[C@H]2O)cc1`: the minimum inhibitory concentration (MIC) in the series with Enterococcus [1] was found to be 4 µM (≈ 7.12 µg/mL); in the series on Staphylococcus aureus [2], 4 µM (≈ 7.12 µg/mL); in the series on Staphylococcus aureus [3], 4 µM (≈ 7.12 µg/mL); in the series with Enterococcus [4], 4 µM (≈ 7.12 µg/mL); in the series on Staphylococcus aureus [5], 8 µM (≈ 14.2 µg/mL); in the series with Enterococcus [6], 2 µM (≈ 3.56 µg/mL). Moreover, the MIC with Enterococcus [7] and in the series on Staphylococcus aureus [8] was 4 µM (≈ 7.12 µg/mL) throughout. The molecule further returned an HC50 at 1 h in [9] of 27.5 µM.
Consider `CCCCCCCCCCNC(=O)c1ccc(CN[C@@]2(C)C[C@H](O[C@H]3[C@H](Oc4c5cc6cc4Oc4ccc(cc4Cl)[C@@H](O)[C@@H](NC(=O)[C@@H](CC(C)C)NC)C(=O)N[C@@H](CC(N)=O)C(=O)N[C@H]6C(=O)N[C@H]4C(=O)N[C@H](C(=O)N[C@H](C(=O)O)c6cc(O)cc(O)c6-c6cc4ccc6O)[C@H](O)c4ccc(c(Cl)c4)O5)O[C@H](CO)[C@@H](O)[C@@H]3O)O[C@@H](C)[C@H]2O)cc1`, for which the MIC in the series on Enterococcus [1] amounted to 2 µM (≈ 3.45 µg/mL); with Staphylococcus aureus [2], 2 µM (≈ 3.45 µg/mL); in the series with Staphylococcus aureus [3] it was 2 µM (≈ 3.45 µg/mL); in the series with Enterococcus [4] it was 0.2 µM (≈ 0.345 µg/mL); in the series with Staphylococcus aureus [5], 2 µM (≈ 3.45 µg/mL); in the series with Enterococcus [6], 2 µM (≈ 3.45 µg/mL). For the same molecule, the MIC with Enterococcus [7] amounted to 2 µM (≈ 3.45 µg/mL); in the series with Staphylococcus aureus [8], 1 µM (≈ 1.72 µg/mL). Moreover, the Ratio in the series with Enterococcus [11] turned out to be 670; with Staphylococcus aureus [12], 390; in the series on Staphylococcus aureus [13], 390; in the series on Staphylococcus aureus [14], 390; in the series with Enterococcus [15], 670; in the series on Enterococcus [16] it was 670. In the series with Enterococcus [17], the Ratio is on record as 670. This molecule also came in with an HC50 at 1 h in series [9] of 62.5 µM.
With `CN[C@H](CC(C)C)C(=O)N[C@H]1C(=O)N[C@@H](CC(N)=O)C(=O)N[C@H]2C(=O)N[C@H]3C(=O)N[C@H](C(=O)N[C@H](C(=O)O)c4cc(O)cc(O)c4-c4cc3ccc4O)[C@H](O)c3ccc(c(Cl)c3)Oc3cc2cc(c3O[C@@H]2O[C@H](CO)[C@@H](O)[C@H](O)[C@H]2O[C@H]2C[C@](C)(NCc3ccc(C(=O)NCCC[N+](C)(C)Cc4ccccc4)cc3)[C@H](O)[C@H](C)O2)Oc2ccc(cc2Cl)[C@H]1O`, the MIC with Enterococcus [1] is above 30 µM; in the series on Staphylococcus aureus [2], 30.5 µM; in the series with Staphylococcus aureus [3], 0.9 µM; in the series with Enterococcus [4], above 30 µM; with Staphylococcus aureus [5] it was 30.5 µM; in the series with Enterococcus [6], above 30 µM. The values for the MIC in the series with Enterococcus [7] and with Staphylococcus aureus [8] were above 30 µM and 30.5 µM, respectively. This molecule also had an HC50 at 1 h in series [9] above 250 µM. Besides, the hemolysis at 1 h, 250 µM in series [10] came out at 0%.
In the case of `CCCCCCCCCCCCNC(=O)C[N+](C)(C)CCCNC(=O)c1ccc(CN[C@@]2(C)C[C@H](O[C@H]3[C@H](Oc4c5cc6cc4Oc4ccc(cc4Cl)[C@@H](O)[C@@H](NC(=O)[C@@H](CC(C)C)NC)C(=O)N[C@@H](CC(N)=O)C(=O)N[C@H]6C(=O)N[C@H]4C(=O)N[C@H](C(=O)N[C@H](C(=O)O)c6cc(O)cc(O)c6-c6cc4ccc6O)[C@H](O)c4ccc(c(Cl)c4)O5)O[C@H](CO)[C@@H](O)[C@@H]3O)O[C@@H](C)[C@H]2O)cc1`, the MIC worked out at 1.8 µM in the series on Enterococcus [1]; 0.9 µM in the series with Staphylococcus aureus [2]; 1.8 µM in the series on Staphylococcus aureus [3]; 1.8 µM in the series with Enterococcus [4]; 0.9 µM in the series on Staphylococcus aureus [5]; 0.9 µM in the series with Enterococcus [6]. Further, the MIC with Enterococcus [7] and in the series with Staphylococcus aureus [8] was 0.9 µM throughout. For the same molecule, the Ratio in the series on Enterococcus [11], in the series on Staphylococcus aureus [12], in the series on Staphylococcus aureus [13], with Staphylococcus aureus [14], with Enterococcus [15] and with Enterococcus [16] was 780 each time. The Ratio in the series with Enterococcus [17] was determined as 780. Besides, in [9], the HC50 at 1 h turned out to be 72 µM.
On to `CCCCCCCCCCCCCCNC(=O)C[N+](C)(C)CCCNC(=O)c1ccc(CN[C@@]2(C)C[C@H](O[C@H]3[C@H](Oc4c5cc6cc4Oc4ccc(cc4Cl)[C@@H](O)[C@@H](NC(=O)[C@@H](CC(C)C)NC)C(=O)N[C@@H](CC(N)=O)C(=O)N[C@H]6C(=O)N[C@H]4C(=O)N[C@H](C(=O)N[C@H](C(=O)O)c6cc(O)cc(O)c6-c6cc4ccc6O)[C@H](O)c4ccc(c(Cl)c4)O5)O[C@H](CO)[C@@H](O)[C@@H]3O)O[C@@H](C)[C@H]2O)cc1`, for which the MIC in the series with Enterococcus [1] came out at 1.8 µM; with Staphylococcus aureus [2], 1.8 µM; with Staphylococcus aureus [3], 1.8 µM; with Enterococcus [4] it was 1.8 µM; with Staphylococcus aureus [5], 1.8 µM; in the series with Enterococcus [6] it was 0.9 µM. The figures for the MIC in the series on Enterococcus [7] and with Staphylococcus aureus [8] were 0.9 µM and 1.8 µM, respectively. For the same molecule, the Ratio in the series with Enterococcus [11], with Staphylococcus aureus [12], in the series on Staphylococcus aureus [13], in the series with Staphylococcus aureus [14], in the series with Enterococcus [15] and in the series with Enterococcus [16] was 780 in each case. Moreover, in the series with Enterococcus [17], the Ratio amounted to 780. This molecule had an HC50 at 1 h in series [9] of 35 µM.
